Results taken from patent US11976062B2, “Benzisoxazole compound” (OSAKA UNIVERSITY, priority 2018, dated 2024).

Tests used:
[1] = test system: α-SMA expression induced by TGFβ1 in dermal fibroblasts; test: Fibrosis inhibition evaluation 1: western blotting of α-SMA in dermal fibroblasts; type: cell-based, mice; conditions: compound 011 0.1, 1, 10 μM (especially 10 μM); Pyr 2 10 μM; TGFβ1 10 ng/ml, 48 hours
Experimental: The expression of α-smooth muscle actin (α-SMA) in fibroblasts was evaluated by western blotting. Dermal fibroblasts were isolated from 1 to 3-day-old mice, and 2.5×10^5 cells were seeded in a 12-well plate. After 24 hours, the medium was replaced with a medium free of fetal bovine serum, and the cells were cultured for another 24 hours. Thereafter, 10 ng/ml of transforming growth factor β1 (TGFβ1) was added, and the cells were cultured for 48 hours. At the same time as TGFβ1 was added, a test compound (compound 011) of a predetermined concentration (0.1 μM, 1 μM, 10 μM) and 10 μM of Pyr 2 or DMSO (solvent control) were also added. […] The cultured cells were dissolved in a lysis buffer (140 mM NaCl, 20 mM Tris-HCl pH 7.8, 1% Triton-X100, 0.05% sodium deoxycholate, 0.1% SDS, 2 mM EDTA, proteinase inhibitor cocktail), and separated by SDS-PAGE, followed by detecting α-SMA using anti-α-SMA antibody (Sigma) as the primary antibody and anti-mouse IgG antibody (cell signaling) fused with horse radish peroxidase as the secondary antibody.

TRPC6 channel = target: T1, TRPC6 channel (Homo sapiens, UniProt Q9Y210); test: Electrophysiological evaluation (whole-cell patch) using HEK293 cells transiently expressing TRPC6 channel; type: cell-based; conditions: 30 μM for 30 seconds, carbachol 100 μM, holding potential −50 mV
T1 construct: expressed in transfected cells; host or cells: HEK293
T1 sequence (Q9Y210 1-931): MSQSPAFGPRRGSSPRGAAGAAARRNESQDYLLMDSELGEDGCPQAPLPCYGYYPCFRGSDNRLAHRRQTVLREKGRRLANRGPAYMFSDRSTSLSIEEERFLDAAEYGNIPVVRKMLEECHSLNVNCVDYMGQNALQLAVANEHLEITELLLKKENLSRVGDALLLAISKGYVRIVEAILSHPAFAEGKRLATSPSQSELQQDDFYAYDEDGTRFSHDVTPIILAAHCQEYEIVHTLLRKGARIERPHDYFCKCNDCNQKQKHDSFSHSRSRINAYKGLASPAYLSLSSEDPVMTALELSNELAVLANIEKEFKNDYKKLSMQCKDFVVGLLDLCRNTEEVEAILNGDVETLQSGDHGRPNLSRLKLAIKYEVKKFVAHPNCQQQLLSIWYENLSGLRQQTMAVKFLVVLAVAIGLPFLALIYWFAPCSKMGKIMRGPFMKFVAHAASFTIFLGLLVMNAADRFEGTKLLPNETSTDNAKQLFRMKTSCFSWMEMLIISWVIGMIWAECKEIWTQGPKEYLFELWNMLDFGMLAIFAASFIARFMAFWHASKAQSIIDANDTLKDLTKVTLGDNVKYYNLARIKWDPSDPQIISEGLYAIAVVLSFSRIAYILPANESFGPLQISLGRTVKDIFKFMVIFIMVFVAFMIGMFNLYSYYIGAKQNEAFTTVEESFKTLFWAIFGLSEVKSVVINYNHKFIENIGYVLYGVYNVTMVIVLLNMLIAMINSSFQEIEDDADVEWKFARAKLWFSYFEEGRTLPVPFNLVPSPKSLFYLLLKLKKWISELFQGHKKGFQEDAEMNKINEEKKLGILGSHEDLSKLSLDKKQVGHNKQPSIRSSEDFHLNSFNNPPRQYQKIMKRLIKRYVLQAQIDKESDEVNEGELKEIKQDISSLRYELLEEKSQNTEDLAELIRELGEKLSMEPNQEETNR
Experimental: Evaluation was performed using TRPC6-expressing cells cultured in the same manner as in Test Example 1. The transfected cells were placed in a chamber set in a microscope, and TRPC6 current was measured with a patch glass electrode (5 to 10 MΩ) in whole-cell mode. The extracellular solution and intracellular solution used in this evaluation are listed below.
Extracellular Solution: 140 mM NaCl, 5 mM KCl, 1 mM CaCl2, 1.2 mM MgCl2, 10 mM Glucose, 10 mM HEPES (pH 7.4)
Intracellular Solution: 120 mM CsOH, 120 mM Aspartate, 20 mM CsCl, 2 mM MgCl2, 1.5 mM CaCl2, 5 mM EGTA, 10 mM Glucose, 10 mM HEPES, 2 mM ATP-Na, 0.1 mM GTP (pH 7.4)
The holding potential was fixed at −50 mV. TRPC current was evoked by adding carbachol (100 μM) to the cells. Evaluation was performed on the change in current caused by adding 30 μM of a test compound (compound 011) to the cells for 30 seconds after 20 seconds from the addition of carbachol.

[2] = test system: α-SMA expression induced by TGFβ2 in cardiac fibroblasts; test: Fibrosis inhibition evaluation 2: immunofluorescent staining of α-SMA in cardiac fibroblasts; type: cell-based, rats; conditions: 10 μM, TGFβ2 2 ng/ml, 48 hours, FIG. 8
Experimental: (§1) In the same manner as in Test Example 5, dermal fibroblasts were isolated from mice, and sterilized cover glass (diameter: 12 mm) was placed in a 12-well plate. On the cover glass, 2.5×10^5 cells were seeded and grown. After 24 hours, the medium was replaced with a medium free of fetal bovine serum, and the cells were cultured for another 24 hours. Separately, cardiac fibroblasts were isolated from 1 to 2-day-old rats and treated in the same manner as for the dermal fibroblasts. Thereafter, 10 ng/ml TGFβ1 was added to the dermal fibroblasts, and 2 ng/ml TGFβ2 was added to the cardiac fibroblasts, followed by culturing the cells for 48 hours. At the same time as TGFβ was added, 10 μM of a test compound (compound 011), 10 μM of Pyr 2 (conventional inhibitor), or DMSO (solvent control) was also added. Separately, cultured cells to which TGFβ-free phosphate buffered saline (PBS) was added were also prepared. […] After blocking with 1% bovine serum albumin, α-SMA was detected using anti-α-SMA antibody (Sigma) as the primary antibody and anti-mouse IgG antibody (Molecular Probes) fused with Alexa 488 as the secondary antibody, and an image was acquired using a fluorescence microscope (Keyence) with a 20× objective lens. The average fluorescence brightness (fluorescence intensity/pixel) per cell area was calculated and analyzed using Image J software.

[3] = test system: α-SMA expression induced by TGFβ1 in dermal fibroblasts; test: Fibrosis inhibition evaluation 2: immunofluorescent staining of α-SMA in dermal fibroblasts; type: cell-based, mice; conditions: 10 μM, TGFβ1 10 ng/ml, 48 hours, FIG. 7
Experimental: as §1

In the case of `O=C(O)c1cnc(N2CCN(c3noc4cccc(C(F)(F)F)c34)CC2)c(Cl)c1` [Compound 011, 5-chloro-6-(4-(4-(trifluoromethyl)benzo[d]isoxazol-3-yl)piperazin-1-yl) nicotinic acid], the “expression of α-SMA induced by TGFβ1 (western blotting)” value [1] is reported as “potently inhibited the expression of α-SMA induced by TGFβ1”, the “change in TRPC6 current evoked by carbachol” value (TRPC6 channel) is reported as “significant decrease in the amount of current” and the “expression of α-SMA induced by TGFβ (immunofluorescent staining)” value [2] is reported as “almost completely suppressed the expression of α-SMA”. For the same compound, the “expression of α-SMA induced by TGFβ (immunofluorescent staining)” value [3] was “almost completely suppressed the expression of α-SMA”.
